Patent US20210052597A1, “HETEROCYCLIC COMPOUNDS USEFUL AS ANTIBACTERIAL AGENTS” (CADILA HEALTHCARE LIMITED, priority 2018, published 2021)
In brackets after ≈: the same amount, converted by molar mass.

Tests used:
[1] = test system: Escherichia coli ATCC 25922; assay: MIC, growth inhibition in Mueller Hinton Broth; type: cell-based; settings: ATCC25922, E. coli ATCC 25922, Gram-negative, read-out: Minimum Inhibitory Concentration E. coli ATCC 25922
[2] = test system: Staphylococcus aureus ATCC 29213; assay: MIC, growth inhibition in Mueller Hinton Broth; type: cell-based; settings: ATCC29213, S. aureus ATCC 29213, Gram positive, read-out: Minimum Inhibitory Concentration S. aureus ATCC 29213
[3] = biological target: Topoisomerase II (UniProt P20831); assay: Topoisomerase II inhibition, gel electrophoresis method; type: biochemical; settings: 37° C. for 30 min, read-out: Invitro IC50 Topoisomerase II
Topoisomerase II, sequence (P20831 whole entry): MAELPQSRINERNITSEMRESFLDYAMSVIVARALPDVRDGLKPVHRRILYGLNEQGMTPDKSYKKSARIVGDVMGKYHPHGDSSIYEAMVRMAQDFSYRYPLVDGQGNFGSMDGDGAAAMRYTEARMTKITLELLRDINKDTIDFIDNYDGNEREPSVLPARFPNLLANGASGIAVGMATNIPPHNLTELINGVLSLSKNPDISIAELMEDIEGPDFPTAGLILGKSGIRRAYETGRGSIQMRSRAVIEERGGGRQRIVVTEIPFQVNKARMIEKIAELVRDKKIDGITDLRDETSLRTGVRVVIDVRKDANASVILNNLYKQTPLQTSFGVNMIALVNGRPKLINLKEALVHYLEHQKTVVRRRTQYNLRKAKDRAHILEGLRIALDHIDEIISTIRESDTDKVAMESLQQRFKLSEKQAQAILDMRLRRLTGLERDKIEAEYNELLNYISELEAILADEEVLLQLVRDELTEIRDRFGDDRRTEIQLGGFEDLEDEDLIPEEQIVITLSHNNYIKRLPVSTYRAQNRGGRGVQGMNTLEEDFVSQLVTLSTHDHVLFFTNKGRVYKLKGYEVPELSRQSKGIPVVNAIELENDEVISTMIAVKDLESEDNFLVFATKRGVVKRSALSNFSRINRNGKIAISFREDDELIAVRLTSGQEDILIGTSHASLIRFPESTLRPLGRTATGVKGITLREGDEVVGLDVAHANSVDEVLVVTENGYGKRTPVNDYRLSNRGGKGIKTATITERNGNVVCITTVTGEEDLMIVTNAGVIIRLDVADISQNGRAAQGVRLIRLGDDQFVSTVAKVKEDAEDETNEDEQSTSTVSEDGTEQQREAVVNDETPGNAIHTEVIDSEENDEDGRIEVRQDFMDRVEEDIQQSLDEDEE
Description: (§1) Evaluation of Topoisomerase II/IV inhibition using gel electrophoresis method: Topoisomerase II/IV (1 unit, Inspiralis) was added to a reaction mixture of DNA (pHOT/kDNA, Topogen) and ATP in appropriate buffers following which different concentrations of the test compounds were added and incubated at 37° C. for 30 min. The reaction was terminated after 30 minutes by the addition of stop buffer. The resulting DNA (relaxed, supercoiled or decatanated) was extracted using chloroform: isoamyl alcohol mixture and was separated using 1% agarose gel electrophoresis. Gel was stained with ethidium bromide for 20 minutes, washed with distilled water and the images were captured for further analysis. The band Intensities from the image were measured using Image J software and the half-maximal […] inhibitory concentration was deduced using Graphpad Prism.

[4] = test system: Staphylococcus aureus ZYABL 006; assay: MIC against fluoroquinolone resistant strain; type: cell-based; settings: ZYABL006, quinolone resistant clinical strain, read-out: Minimum Inhibitory Concentration Staphylococcus aureus ZYABL 006
[5] = biological target: T1, Topoisomerase IV (Escherichia coli, UniProt P0AFI2); assay: Topoisomerase IV inhibition, gel electrophoresis method; type: biochemical; settings: 37° C. for 30 min, read-out: Invitro IC50 Topoisomerase IV
T1 construct: purchased Inspiralis
T1 sequence (P0AFI2 whole entry): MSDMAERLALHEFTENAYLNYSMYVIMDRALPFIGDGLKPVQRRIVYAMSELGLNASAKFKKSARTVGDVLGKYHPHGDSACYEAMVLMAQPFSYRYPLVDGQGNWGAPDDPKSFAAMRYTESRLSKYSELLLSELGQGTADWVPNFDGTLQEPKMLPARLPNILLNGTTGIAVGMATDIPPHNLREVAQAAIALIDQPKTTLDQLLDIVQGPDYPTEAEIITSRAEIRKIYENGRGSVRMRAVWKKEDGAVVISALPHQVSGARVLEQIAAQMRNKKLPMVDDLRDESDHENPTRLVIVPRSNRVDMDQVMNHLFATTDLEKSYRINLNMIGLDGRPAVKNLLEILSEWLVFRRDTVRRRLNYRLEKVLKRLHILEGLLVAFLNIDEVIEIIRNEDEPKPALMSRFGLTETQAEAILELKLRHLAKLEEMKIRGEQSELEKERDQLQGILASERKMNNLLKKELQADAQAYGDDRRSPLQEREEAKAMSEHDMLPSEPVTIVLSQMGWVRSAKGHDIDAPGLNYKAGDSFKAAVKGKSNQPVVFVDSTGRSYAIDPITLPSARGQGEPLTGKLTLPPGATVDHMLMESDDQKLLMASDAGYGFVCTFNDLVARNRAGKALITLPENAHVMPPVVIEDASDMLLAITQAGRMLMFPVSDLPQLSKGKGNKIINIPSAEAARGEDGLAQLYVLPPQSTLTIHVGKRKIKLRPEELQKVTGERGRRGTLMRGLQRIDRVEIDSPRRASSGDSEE
T1 sequence (P20083 whole entry, further chain): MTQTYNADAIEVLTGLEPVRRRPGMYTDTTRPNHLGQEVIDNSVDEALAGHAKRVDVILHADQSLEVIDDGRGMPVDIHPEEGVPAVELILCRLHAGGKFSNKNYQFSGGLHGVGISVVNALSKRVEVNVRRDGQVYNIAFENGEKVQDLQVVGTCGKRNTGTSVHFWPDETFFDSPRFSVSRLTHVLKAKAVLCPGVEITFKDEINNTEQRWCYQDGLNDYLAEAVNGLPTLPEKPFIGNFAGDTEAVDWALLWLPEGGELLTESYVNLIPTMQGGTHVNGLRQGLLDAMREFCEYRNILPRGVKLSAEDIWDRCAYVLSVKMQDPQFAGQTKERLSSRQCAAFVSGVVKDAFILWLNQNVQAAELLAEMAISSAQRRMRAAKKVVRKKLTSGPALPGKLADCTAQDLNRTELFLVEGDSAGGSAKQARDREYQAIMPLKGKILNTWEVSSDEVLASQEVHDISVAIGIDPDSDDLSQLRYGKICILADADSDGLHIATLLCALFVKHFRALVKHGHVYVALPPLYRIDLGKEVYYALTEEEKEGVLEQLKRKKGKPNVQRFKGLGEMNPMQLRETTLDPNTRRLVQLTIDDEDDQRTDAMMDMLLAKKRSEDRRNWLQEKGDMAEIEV
Description: as §1

[6] = biological target: T2, hERG channel (Homo sapiens, UniProt Q12809); assay: hERG binding study, FluxOR potassium ion channel assay; type: cell-based; settings: hERG CHO cells, thallium flux, 20 min incubation
T2 construct: expressed in transfected cells; host or cells: CHO cells
T2 sequence (Q12809 whole entry): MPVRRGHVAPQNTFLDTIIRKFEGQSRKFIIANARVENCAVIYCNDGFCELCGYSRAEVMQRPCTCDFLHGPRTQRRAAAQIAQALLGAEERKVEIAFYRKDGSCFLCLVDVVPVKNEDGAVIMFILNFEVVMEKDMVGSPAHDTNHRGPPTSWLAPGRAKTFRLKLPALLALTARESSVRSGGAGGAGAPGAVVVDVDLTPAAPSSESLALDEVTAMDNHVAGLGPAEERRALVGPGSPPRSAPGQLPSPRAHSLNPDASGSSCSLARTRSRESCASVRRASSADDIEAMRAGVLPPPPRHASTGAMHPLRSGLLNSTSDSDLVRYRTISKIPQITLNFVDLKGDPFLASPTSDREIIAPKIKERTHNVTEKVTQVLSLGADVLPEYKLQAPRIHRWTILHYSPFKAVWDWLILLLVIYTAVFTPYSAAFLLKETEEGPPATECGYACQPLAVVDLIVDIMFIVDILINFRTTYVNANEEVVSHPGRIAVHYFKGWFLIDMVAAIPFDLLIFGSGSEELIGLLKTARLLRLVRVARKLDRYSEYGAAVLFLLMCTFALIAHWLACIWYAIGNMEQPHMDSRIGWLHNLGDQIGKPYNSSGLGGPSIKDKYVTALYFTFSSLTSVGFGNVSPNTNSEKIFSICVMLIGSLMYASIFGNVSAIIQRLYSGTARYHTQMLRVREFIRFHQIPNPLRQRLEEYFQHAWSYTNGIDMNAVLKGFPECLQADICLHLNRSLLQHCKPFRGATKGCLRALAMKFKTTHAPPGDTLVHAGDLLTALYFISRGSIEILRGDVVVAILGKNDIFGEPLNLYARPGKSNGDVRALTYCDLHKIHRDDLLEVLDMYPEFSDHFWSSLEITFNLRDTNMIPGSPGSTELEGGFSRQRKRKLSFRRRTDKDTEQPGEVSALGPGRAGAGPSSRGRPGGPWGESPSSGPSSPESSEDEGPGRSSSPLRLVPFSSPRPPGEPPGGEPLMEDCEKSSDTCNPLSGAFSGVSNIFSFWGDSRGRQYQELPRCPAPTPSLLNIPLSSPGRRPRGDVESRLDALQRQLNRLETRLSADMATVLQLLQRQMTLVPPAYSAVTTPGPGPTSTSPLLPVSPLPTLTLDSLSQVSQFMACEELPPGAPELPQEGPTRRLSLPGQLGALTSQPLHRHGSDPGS
Description: FluxOR™ Potassium Ion Channel Assay
Thallium flows down its concentration gradient into the cells, and channel activity is detected with indicator dye that increases in cytosolic fluorescence. Stably expressing hERG CHO cells are checked with test compounds for hERG liability. Compounds incubated for 20 min with cells then stimulation buffer was added and fluorescence measured on TECAN multimode reader. If test compound is inhibiting hERG channel then it will not allow the thallium to flows down in the cells. Vehicle control is considered as total hERG response while treatment with Astemizole as a total hERG channel inhibition and based on that test compounds hERG channel inhibition calculated.

[7] = test system: Enterococcus Faecalis ATCC29212; settings: from WO 2018172925; cited from earlier work
[8] = test system: S. aureus-ATCC 29213; settings: from WO 2018172925; cited from earlier work
[9] = test system: Moraxella catarrhalis ATCC8176; settings: from WO 2018172925; cited from earlier work
[10] = test system: E. coli ATCC 25922; settings: from WO 2018172925; cited from earlier work
[11] = test system: S. pnuemoniae ATCC6301; settings: from WO 2018172925; cited from earlier work
[12] = test system: K pneumonia ATCC 700603; settings: from WO 2018172925; cited from earlier work
[13] = test system: Mycobacterium tuberculosis; settings: from WO 2008009700 / J. Med. Chem. 2014, 57, 4889-4905; cited from earlier work
[14] = test system: Escherichia coli (ATCC10536); assay: MIC testing against broad panel of strains; settings: ATCC10536, read-out: MIC Escherichia coli (ATCC10536)
Description: (§2) The ability of the invention compounds disclosed herein to achieve an antibacterial effect may be evaluated with regard to their ability to inhibit the growth of bacterial species like Escherichia coli ATCC 25922, Staphylococcus aureus ATCC 29213 using an assay based on the following Minimum Inhibitory Concentration (MIC) protocol:
(§3) The test bacteria are grown in Muellor Hinton Broth (M1657)—MHB, 25 grams of the powder is dissolved in 1000 ml distilled water and sterilized by autoclaving at 15 lbs pressure (121° C.) for 20 minutes. The medium sterility is checked by incubating at 37° C. for a period of 48 h.
(§4) Bacterial cultures that are stored as glycerol stocks at −80° C. are sub cultured on LB agar plates to obtain isolated colonies. A single colony of each strain is cultured in LB broth. The cultures are incubated at 37° C., 200 rpm till they reach an optical density (OD at 600 nm) of 0.8 to 1. This log phase culture is diluted in LB broth to a cell number of 5-8*10^5 CFU/mL to be used as inoculum for MIC experiments.
(§5) Test compounds were diluted in their respective solvents and added to a final concentration ranging from 16 to 0.12 μg/ml in 150 μl MHB in 96 well plates.
(§6) Controls to monitor the effects of DMSO and media sterility are included. […] The following morning, the plates are read using a Spectrophotometer at 600 nm wavelength.

[15] = test system: Klebsiella pneumonia (ATCC35657); assay: MIC testing against broad panel of strains; settings: Klebsiella pneumoniae, ATCC35657, read-out: MIC Klebsiella pneumonia (ATCC35657)
Description: as §2, §3, §4, §5, §6

[16] = test system: Acinetobacter baumannii (BAA1605); assay: MIC testing against broad panel of strains; settings: BAA1605, read-out: MIC Acinetobacter baumannii (BAA1605)
Description: as §2, §3, §4, §5, §6

[17] = test system: Enterococcus faecalis (ATCC700802); assay: MIC testing against broad panel of strains; settings: ATCC700802, read-out: MIC Enterococcus faecalis (ATCC700802)
Description: as §2, §3, §4, §5, §6

[18] = test system: Staphylococcus pneumonia (ATCC700906); assay: MIC testing against broad panel of strains; settings: ATCC700906, read-out: MIC Staphylococcus pneumonia (ATCC700906)
Description: as §2, §3, §4, §5, §6

[19] = test system: Mycobacterium tuberculosis H37Rv; assay: Mycobacterium tuberculosis H37Rv inhibition assay (MIC); type: cell-based
Description: Mycobacterium tuberculosis H37Rv Inhibition Assay
The measurement of the minimum inhibitory concentration (MIC) for each tested compound was performed in 96 wells flat bottom, polystyrene microtiter plates following standard protocol.

[20] = test system: Staphylococcus aureus (BAA38); assay: MIC testing against broad panel of strains; settings: BAA38, read-out: MIC Staphylococcus aureus (BAA38)
Description: as §2, §3, §4, §5, §6

| SMILES | MIC [1] [µg/mL] | MIC [2] [µg/mL] | IC50 [3] [nM] | MIC [4] [µg/mL] | IC50 [5] [nM] | IC50 [6] [nM] | also measured |
| --- | --- | --- | --- | --- | --- | --- | --- |
| O=C1CSc2ccc(CNC3CCN(CCn4c(=O)ccc5ccc(F)cc54)CC3)cc2N1 [Example 5, 6-(((1-(2-(7-fluoro-2-oxoquinolin-1(2H)-yl)ethyl)piperidin-4-yl)amino)methyl)-2H-benzo[b][1,4]thiazin-3(4H)-one] | 0.25 (≈ 0.536 µM) | 0.25 (≈ 0.536 µM) | 38.4 | < 0.125 | 800 | > 10000 | – |
| N#Cc1ccc2ccc(=O)n(CCN3CCC(NCc4ccc5c(c4)OCCO5)CC3)c2c1 [Example 1, 1-(2-(4-(((2,3-dihydrobenzo[b][1,4]dioxin-6-yl)methyl)amino)piperidin-1-yl)ethyl)-2-oxo-1,2-dihydroquinoline-7-carbonitrile] | 0.5 (≈ 1.12 µM) | 0.03 (≈ 0.0675 µM) | 44 | < 0.125 | 900 | > 30000 | – |
| Cc1ccc(CNC2CCN(CCn3c(=O)ccc4ccc(C#N)cc43)CC2)cc1[N+](=O)[O-] [VT-03-00065] | – | – | – | – | – | – | MIC Enterococcus Faecalis ATCC29212 [7]: > 32 µg/mL; MIC S. aureus-ATCC 29213 [8]: 0.25 µg/mL (≈ 0.561 µM); MIC Moraxella catarrhalis ATCC8176 [9]: > 32 µg/mL; MIC E. coli ATCC 25922 [10]: > 32 µg/mL; MIC S. pnuemoniae ATCC6301 [11]: 4 µg/mL (≈ 8.98 µM); MIC K pneumonia ATCC 700603 [12]: > 32 µg/mL |
| N#Cc1ccc2ncc(=O)n(CCN3CCC(NCc4ccc5c(c4)NC(=O)CS5)CC3)c2c1 [Example 6, 3-oxo-4-(2-(4-(((3-oxo-3,4-dihydro-2H-benzo[b][1,4]thiazin-6-yl)methyl)amino)piperidin-1-yl)ethyl)-3,4-dihydroquinoxaline-6-carbonitrile] | < 0.125 | < 0.125 | – | – | – | – | – |
| N#Cc1ccc2ccc(=O)n(CCN3CCC(NCc4cc5c(cn4)OCCO5)CC3)c2c1 [Example 54] | – | – | – | – | – | – | MIC against Mycobacterium tuberculosis [13]: 1 µM (≈ 0.446 µg/mL) |
| O=C1COc2ccc(CNC3CCN(CCn4c(=O)ccc5ccc(F)cc54)CC3)cc2N1 [Example 4, 6-(((1-(2-(7-fluoro-2-oxoquinolin-1(2H)-yl)ethyl)piperidin-4-yl)amino)methyl)-2H-benzo[b][1,4]oxazin-3(4H)-one] | < 0.125 | < 0.125 | 6.9 | < 0.125 | 400 | > 10000 | – |
| N#Cc1ccc2ccc(=O)n(CCN3CCC(NCc4ccc5c(c4)NC(=O)CO5)CC3)c2c1 [Example 2, 2-oxo-1-(2-(4-(((3-oxo-3,4-dihydro-2H-benzo[b][1,4]oxazin-6-yl)methyl)amino)piperidin-1-yl)ethyl)-1,2-dihydroquinoline-7-carbonitrile] | 0.25 (≈ 0.546 µM) | 0.25 (≈ 0.546 µM) | 3.4 | < 0.125 | 1300 | > 10000 | – |
| N#Cc1ccc2ccc(=O)n(CCN3CCC(NCc4ccc5c(c4)NC(=O)CS5)CC3)c2c1 [Example 3, 2-oxo-1-(2-(4-(((3-oxo-3,4-dihydro-2H-benzo[b][1,4]thiazin-6-yl)methyl)amino)piperidin-1-yl)ethyl)-1,2-dihydroquinoline-7-carbonitrile] | 0.125 (≈ 0.264 µM) | 0.06 (≈ 0.127 µM) | 3.2 | < 0.125 | 300 | > 10000 | MIC [14]: 0.125 µg/mL (≈ 0.264 µM); MIC [15]: 0.25 µg/mL (≈ 0.528 µM); MIC [16]: 0.25 µg/mL (≈ 0.528 µM); MIC [17]: 0.5 µg/mL (≈ 1.06 µM); MIC [18]: 0.125 µg/mL (≈ 0.264 µM); inhibition of Mycobacterium tuberculosis (in words) [19]: potent inhibition; MIC ([19]; Mycobacterium tuberculosis, H37RV, 96 well microtiter plates): 0.25 µM (≈ 0.118 µg/mL); MIC [20]: 0.125 µg/mL (≈ 0.264 µM) |
